Data as given in US20170334899A1, “AMINO-SUBSTITUTED ISOTHIAZOLES” (Bayer Pharma Aktiengesellschaft, priority 2014, published 2017).

What was measured:
[1] = test system: human cervical tumor cell line HeLa (ATCC CCL-2); assay: SAC-Formation - Nocodazole-Induced Assay; type: cell-based; conditions: 24 h, HeLa cells, nocodazole 0.1 μg/ml together with test compound, decrease of mitotic cells (phospho-histone H3 Ser10)
In short: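 Loss of phospho-histone H3 Ser10-positive cells, counted against Hoechst-stained nuclei by high-content imaging, marked mitotic breakthrough. Compounds (0.005–20 μM, 0.5% DMSO) were co-dosed with 0.1 μg/ml nocodazole onto HeLa cells for 24 h at 37 °C. Curves were fitted with a four-parameter Hill equation.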

[2] = test system: human cervical tumor cell line HeLa (ATCC CCL-2); assay: SAC-Formation - Paclitaxel-Induced Assay; type: cell-based; conditions: 24 h, HeLa cells, paclitaxel 0.05 μM, test range 0.005 μM-20 μM, read-out: IC50 [mol/l] SAC-Formation - Paclitaxel-Induced Assay
In short: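 Read-out is high-content imaging of anti-phospho-H3 Ser10 (mitosis) and Hoechst 33342 (DNA, cell number), with decreased mitotic fraction marking checkpoint breakthrough. Compounds (0.005–20 μM) and 0.05 μM paclitaxel co-added to overnight-plated HeLa for 24 h at 37° C; four-parameter Hill fit.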

IC50 ([1]; Homo sapiens, HeLa) [nM]	IC50 ([2]; Homo sapiens, HeLa) [nM]	IC50 [1] [nM]	IC50 [2] [nM]	Compound
11	210			Cc1nsc(Nc2cnc3ccccc3n2)c1C(=O)Nc1cccc(-c2nnc(C(C)(C)C)o2)c1 [Example 107, N-[3-(5-tert-Butyl-1,3,4-oxadiazol-2-yl)phenyl]-3-methyl-5-(quinoxalin-2-ylamino)-1,2-thiazole-4-carboxamide]
		55	98	Cc1nsc(Nc2cnc(C(F)(F)F)cn2)c1C(=O)Nc1ccc(F)c(OCC2CCCN(CC(F)F)C2)c1 (stereo not drawn) [Example 335, N-(3-{[1-(2,2-difluoroethyl)piperidin-3-yl]methoxy}-4-fluorophenyl)-3-methyl-5-{[5-(trifluoromethyl)pyrazin-2-yl]amino}-1,2-thiazole-4-carboxamide]
14000	19000			Cc1nsc(Nc2cnc(C(F)(F)F)cn2)c1C(=O)Nc1ccc(OC2CCNCC2)nc1 [Example 6, 3-Methyl-N-[6-(piperidin-4-yloxy)pyridin-3-yl]-5-{[5-(trifluoromethyl)pyrazin-2-yl]amino}-1,2-thiazole-4-carboxamide]
4900	7500			Cc1nsc(Nc2cnc3ccccc3n2)c1C(=O)Nc1cccc(C(=O)N2CCN(C)CC2)c1 [Example 102, 3-Methyl-N-{3-[(4-methylpiperazin-1-yl)carbonyl]phenyl}-5-(quinoxalin-2-ylamino)-1,2-thiazole-4-carboxamide]
190	1500			Cc1nsc(Nc2cnc3ccccc3n2)c1C(=O)Nc1ccc(Oc2cccc(C(F)(F)F)c2)nc1 [Example 117, 3-Methyl-5-(quinoxalin-2-ylamino)-N-{6-[3-(trifluoromethyl)phenoxy]pyridin-3-yl}-1,2-thiazole-4-carboxamide]
24	38			Cc1nsc(Nc2cnc(C(F)(F)F)cn2)c1C(=O)Nc1ccc(OCC2CCN(CCC(F)(F)F)C2)nc1 (stereo not drawn) [Example 124, 3-methyl-5-{[5-(trifluoromethyl)pyrazin-2-yl]amino}-N-(6-{[1-(3,3,3-trifluoropropyl)pyrrolidin-3-yl]methoxy}pyridin-3-yl)-1,2-thiazole-4-carboxamide]
210	1700			Cc1nsc(Nc2cnc3ccccc3n2)c1C(=O)Nc1cccc(C(=O)N2CCCC2)c1 [Example 113, 3-Methyl-N-[3-(pyrrolidin-1-ylcarbonyl)phenyl]-5-(quinoxalin-2-ylamino)-1,2-thiazole-4-carboxamide]
19	53			Cc1nsc(Nc2cnc3ccccc3n2)c1C(=O)Nc1cccc(-c2nc(C(C)(C)C)no2)c1 [Example 108, N-[3-(3-tert-Butyl-1,2,4-oxadiazol-5-yl)phenyl]-3-methyl-5-(quinoxalin-2-ylamino)-1,2-thiazole-4-carboxamide]
1100	20000			Cc1nsc(Nc2cnc3ccccc3n2)c1C(=O)Nc1cccc(C(=O)NCC(=O)O)c1 [Example 99, N-[3-({[3-Methyl-5-(quinoxalin-2-ylamino)-1,2-thiazol-4-yl]carbonyl}amino)benzoy]-glycine]
